Here are results for 17 compounds from patent publication US20250186450A1, “COMBINATION THERAPY COMPRISING DGK INHIBITORS and PD-1/PD-L1 INHIBITORS” (Incyte Corporation, priority 2023, published 2025).

For orientation: IC50 means the concentration that gives 50% inhibition. Higher therefore signals weaker potency in that assay.

The target in one assay is DGKζ (Homo sapiens (Human), UniProt Q13574). Nature of the assay: In vitro DGKζ inhibition assay (ADP-Glo). The class given is biochemical. Particulars: 0.4 nM DGKζ, 30 μM ATP, 20 μM DLG. On the procedure:
(§1) The DGKα and DGKζ biochemical reactions were performed using His-tagged human recombinant enzymes (Signal Chem, DGKα, #D21-10BH; DGKζ, #D30-10H)) and DLG (Dilauroyl-sn-glycerol) lipid substrate (Signal Chem, #D430-59). ADP-Glo assay was performed using ADP-Glo™ kinase Assay kit (Promega, #V9104). The reactions were carried out in assay buffer containing 40 mM Tris, pH 7.5, 0.1% CHAPS, 0.1% Prionex, 40 mM NaCl, 5 mM MgCl2, 1 mM CaCl2, and 1 mM DTT. DGKα reactions contained 0.1 nM DGKα, 50 μM ATP, and 20 μM DLG. And DGKζ reactions contained 0.4 nM DGKζ, 30 μM ATP, and 20 μM DLG.
(§2) For compound inhibition studies, 40 nL test compound in DMSO was added to wells of white polystyrene plates in 384-well (Greiner, #784075) or 1536-well format (Greiner, #782075). Compounds were added with top concentration of 2 mM with 11 point, 3-fold dilution series. Enzyme solution (contains 2×DGK enzyme concentration in 1× assay buffer) was added to the plate in 2 μL/well volume, followed by 2 μL/well of substrate solution (contains 2× concentration of ATP and DLG substrate in 1× assay buffer). Plates were then centrifuged for 1 min at 1200 RPM and sealed or lidded. For 4 μL reaction volume, test compounds were therefore diluted 100× to final top concentration of 20 μM. After 90 minute incubation, reactions were quenched by addition of 2 μL/well Promega ADP-Glo Reagent, followed by centrifugation and lidding. After 60 min incubation, 2 μL/well Promega Kinase Detection Reagent was added, plates centrifuged, and incubated for 30 min. Plates were then read using Luminescence method on BMG PHERAstar FSX plate reader. Percent inhibition was calculated and IC50s were determined using 4-parameter fit in Genedata Screener. Labcyte Echo acoustic dispenser was used for compound addition, and Formulatrix Tempest liquid handler was used for all reagent dispenses.
In general terms: ADP-Glo first removes unused ATP, then detects ADP through luciferase.

Another assay concerns the target DGKα (Homo sapiens (Human), UniProt P23743). Nature of the assay: In vitro DGKα inhibition assay (ADP-Glo). The following applies: 0.1 nM DGKα, 50 μM ATP, 20 μM DLG. The class given is biochemical. On the procedure:
as §1, §2

Sequence of DGKα (P23743 whole entry): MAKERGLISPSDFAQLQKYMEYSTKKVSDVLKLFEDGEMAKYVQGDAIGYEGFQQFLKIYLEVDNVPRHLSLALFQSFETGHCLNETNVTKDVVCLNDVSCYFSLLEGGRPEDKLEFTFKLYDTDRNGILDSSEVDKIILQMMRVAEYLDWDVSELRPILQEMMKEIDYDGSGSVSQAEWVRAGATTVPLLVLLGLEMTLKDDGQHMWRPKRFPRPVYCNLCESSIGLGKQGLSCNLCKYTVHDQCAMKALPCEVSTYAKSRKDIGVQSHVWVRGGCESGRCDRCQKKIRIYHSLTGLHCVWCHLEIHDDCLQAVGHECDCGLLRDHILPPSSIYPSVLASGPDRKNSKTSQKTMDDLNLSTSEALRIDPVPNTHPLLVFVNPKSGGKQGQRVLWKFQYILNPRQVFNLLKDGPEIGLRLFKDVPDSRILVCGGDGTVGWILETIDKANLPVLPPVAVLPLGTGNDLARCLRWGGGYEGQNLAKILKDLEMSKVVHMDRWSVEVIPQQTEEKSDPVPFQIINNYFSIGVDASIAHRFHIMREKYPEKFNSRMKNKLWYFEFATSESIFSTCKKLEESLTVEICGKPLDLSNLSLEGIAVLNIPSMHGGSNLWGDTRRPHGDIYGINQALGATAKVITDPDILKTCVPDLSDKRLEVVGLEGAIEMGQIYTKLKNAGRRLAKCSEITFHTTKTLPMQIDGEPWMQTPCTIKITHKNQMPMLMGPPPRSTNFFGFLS
Sequence of DGKζ (Q13574 whole entry): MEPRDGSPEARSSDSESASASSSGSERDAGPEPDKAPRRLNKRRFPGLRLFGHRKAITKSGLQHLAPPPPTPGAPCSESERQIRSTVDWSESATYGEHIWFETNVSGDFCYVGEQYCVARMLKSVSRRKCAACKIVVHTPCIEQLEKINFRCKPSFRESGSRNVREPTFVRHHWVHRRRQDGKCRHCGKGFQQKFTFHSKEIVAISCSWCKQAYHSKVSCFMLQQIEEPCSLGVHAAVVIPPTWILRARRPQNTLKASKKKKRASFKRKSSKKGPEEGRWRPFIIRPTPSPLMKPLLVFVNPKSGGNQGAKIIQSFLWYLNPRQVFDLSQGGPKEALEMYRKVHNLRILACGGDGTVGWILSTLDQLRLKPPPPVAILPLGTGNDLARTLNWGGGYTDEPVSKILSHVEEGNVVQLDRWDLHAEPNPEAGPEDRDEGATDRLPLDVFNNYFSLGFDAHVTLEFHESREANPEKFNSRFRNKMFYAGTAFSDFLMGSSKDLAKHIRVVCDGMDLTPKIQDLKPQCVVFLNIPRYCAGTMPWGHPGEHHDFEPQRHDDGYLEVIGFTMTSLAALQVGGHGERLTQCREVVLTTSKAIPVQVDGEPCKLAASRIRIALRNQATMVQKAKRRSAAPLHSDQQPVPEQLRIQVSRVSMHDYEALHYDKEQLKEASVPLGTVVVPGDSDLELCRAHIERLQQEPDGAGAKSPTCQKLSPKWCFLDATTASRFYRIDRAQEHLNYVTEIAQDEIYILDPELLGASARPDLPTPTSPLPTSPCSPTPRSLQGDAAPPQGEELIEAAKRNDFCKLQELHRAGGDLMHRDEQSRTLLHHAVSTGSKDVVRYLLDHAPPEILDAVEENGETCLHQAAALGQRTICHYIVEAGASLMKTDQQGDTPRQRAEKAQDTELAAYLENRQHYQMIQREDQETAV

For the compound `Cc1nc2c(N3C[C@@H](C)N(Cc4ccc(C(F)(F)F)cc4F)C[C@@H]3C)nc3nncn3c2n1C[C@@H]1CCCO1` [Example 14, 4-((2S,5R)-4-(2-Fluoro-4-(trifluoromethyl)benzyl)-2,5-dimethylpiperazin-1-yl)-2-methyl-1-(((S)-tetrahydrofuran-2-yl)methyl)-1H-[1,2,4]triazolo[3,4-b]purine], the 50% inhibitory concentration (IC50) at DGKζ and against DGKα was at most 20 nM in each case.

Turning to `C[C@@H]1CN(c2cc3nncn3c3c2ncn3C[C@@H]2CCCO2)[C@@H](C)CN1C(c1ccc(Cl)cc1)C1CC(F)(F)C1` (single isomer, unassigned) [Example 22], the half-inhibitory concentration (IC50) against DGKζ and against DGKα was at most 20 nM each time.

Consider `C[C@@H]1CN(c2nc3nncn3c3c2ncn3C[C@@H]2CCCO2)[C@@H](C)CN1C(c1ccc(Cl)cc1)[C@@H]1CC1(F)F` (single isomer, unassigned) [Example 7], for which the half-maximal inhibitory concentration (IC50) against DGKζ and against DGKα was at most 20 nM in each case.

Turning to `Cc1nc2c(N3C[C@@H](C)N(C(c4ccc(C(F)(F)F)cc4)C4CC(F)(F)C4)C[C@@H]3C)cc3nncn3c2n1C[C@@H]1CCCO1` (single isomer, unassigned) [Example 17], the concentration for half-maximal inhibition (IC50) at DGKζ and at DGKα was at most 20 nM each time.

Consider `Cc1nc2c(N3C[C@@H](C)N(C(CC(C)C)c4ccc(Cl)c(F)c4)C[C@@H]3C)nc3nncn3c2n1C[C@@H]1CCCO1` (single isomer, unassigned) [Example 11], for which the IC50 on DGKζ and on DGKα was at most 20 nM throughout.

`CC[C@@H]1CN(c2nc3nncn3c3c2ncn3C[C@@H]2CCCO2)[C@@H](C)CN1C(c1ccc(Cl)cc1)C1CC(F)(F)C1` (stereo partly drawn) [Example 13, 4-((2S,5R)-4-((4-Chlorophenyl)(3,3-difluorocyclobutyl)methyl)-5-ethyl-2-methylpiperazin-1-yl)-1-(((S)-tetrahydrofuran-2-yl)methyl)-1H-[1,2,4]triazolo[3,4-b]purine]: the IC50 on DGKζ and at DGKα was at most 20 nM throughout.

On to `CC[C@@H]1CN(c2cc3nncn3c3c2nc(C)n3C[C@@H]2CCCO2)[C@@H](C)CN1C(c1ccc(Cl)cc1)C1CC(F)(F)C1` (single isomer, unassigned) [Example 19], for which the IC50 against DGKζ and against DGKα was at most 20 nM in each case.

Regarding `C[C@@H]1CN(c2nc3nncn3c3c2ncn3C[C@@H]2CCCO2)[C@@H](C)CN1C(c1ccc(C(F)(F)F)cc1)C1CC(F)(F)C1` (single isomer, unassigned) [Example 6], the IC50 against DGKζ and against DGKα was at most 20 nM throughout.

On to `CC(C)CC(c1ccc(Cl)cc1)N1C[C@H](C)N(c2nc3nncn3c3c2ncn3C[C@@H]2CCCO2)C[C@H]1C` (single isomer, unassigned) [Example 10], for which the IC50 at DGKζ and at DGKα was at most 20 nM throughout.

Consider `Cc1nc2c(N3C[C@@H](C)N(C(c4ccc(F)c(Cl)c4)C4CC(F)(F)C4)C[C@@H]3C)nc3nncn3c2n1C[C@@H]1CCCO1` (single isomer, unassigned) [Example 3], for which the IC50 on DGKζ and against DGKα was at most 20 nM in each case.

`C[C@@H]1CN(c2cc3nncn3c3c2ncn3C[C@@H]2CCCO2)[C@@H](C)CN1C(c1ccc(Cl)cc1)[C@@H]1CC1(F)F` (single isomer, unassigned) [Example 18]: the IC50 was 20 to 200 nM against DGKζ and at most 20 nM on DGKα.

As for `Cc1nc2c(N3C[C@@H](C)N(C(c4ccc(Cl)cc4)[C@@H]4CC4(F)F)C[C@@H]3C)nc3nncn3c2n1C[C@@H]1CCCO1` (single isomer, unassigned) [Example 9], the half-maximal inhibitory concentration (IC50) on DGKζ and on DGKα was at most 20 nM each time.

`C[C@@H]1CN(c2nc3nncn3c3c2ncn3C[C@@H]2CCCO2)[C@@H](C)CN1C(c1ccc(Cl)cc1)C1CC(F)(F)C1` (stereo partly drawn) [Example 12, 4-((2S,5R)-4-((4-Chlorophenyl)(3,3-difluorocyclobutyl)methyl)-2,5-dimethylpiperazin-1-yl)-1-(((S)-tetrahydrofuran-2-yl)methyl)-1H-[1,2,4]triazolo[3,4-b]purine]: the IC50 on DGKζ and at DGKα was at most 20 nM in each case.

`Cc1nc2c(N3C[C@@H](C)N(C(c4ccc(Cl)cc4)c4ccc(Cl)cc4)C[C@@H]3C)nc3nncn3c2n1C[C@@H]1CCCO1` [Example 5, 4-((2S,5R)-4-(Bis(4-chlorophenyl)methyl)-2,5-dimethylpiperazin-1-yl)-2-methyl-1-(((S)-tetrahydrofuran-2-yl)methyl)-1H-[1,2,4]triazolo[3,4-b]purine]: the IC50 against DGKζ and at DGKα was at most 20 nM in each case.

For the compound `Cc1nc2c(N3C[C@@H](C)N(C(c4ccc(Cl)cc4)C4CC(F)(F)C4)C[C@@H]3C)cc3nncn3c2n1C[C@@H]1CCCO1` (single isomer, unassigned) [Example 23], the IC50 at DGKζ and against DGKα was at most 20 nM throughout.

As for `C[C@@H]1CN(c2nc3nncn3c3c2ncn3C[C@@H]2CCCO2)[C@@H](C)CN1C(c1ccc(Cl)cc1)[C@H]1CC1(F)F` (single isomer, unassigned) [Example 8], the IC50 against DGKζ and against DGKα was at most 20 nM each time.

As to `Cc1nc2c(N3C[C@@H](C)N(C(c4ccc(Cl)c(F)c4)C4CC(F)(F)C4)C[C@@H]3C)nc3nncn3c2n1C[C@@H]1CCCO1` (single isomer, unassigned) [Example 4], the IC50 at DGKζ and on DGKα was at most 20 nM in each case.
